Source: patent publication US20150320706A1, “FORMULATIONS AND METHODS OF TREATING ALZHEIMER'S DISEASE AND OTHER PROTEINOPATHIES BY COMBINATION THERAPY” (CHIESI FARMACEUTICI S.P.A., priority 2014, published 2015)
Entries after “also recorded” stand apart in the source; their conditions may differ.

How the values were obtained:
[1] = in vivo, cited from earlier work
[2] = test system: human APP transgenic mice models of AD; conditions: transgenic mouse models of AD; cited from earlier work
[3] = test system: microglia; conditions: response to an Aβ42 stimulus; cited from earlier work
[4] = test system: sCD40L and TNF-α; assay: Neuroinflammation biomarkers in cerebrospinal fluid of MCI patients; type: in vivo, human; conditions: MCI patients, 200, 400 and 600 mg/day
Description: (§1) Methods: At the end of a 14-week double-blind, placebo-controlled study in 96 MCI patients evaluating three titrated dose regimens of CHF 5074 (200, 400 and 600 mg/day), patients were given the option to enter a 76-week open label extension study. Patients received CHF 5074 at the dose equal to that of their originally assigned double-blind study cohort. Patients were monitored for vital signs, cardiac activity, neuropsychological performance and safety laboratory parameters.

[5] = test system: Aβ42; conditions: in vitro; cited from earlier work
[6] = test system: MCI (mild cognitively impaired) patients; assay: Cognitive tests in open label extension study of CHF 5074 in MCI patients; type: in vivo, human
Description: (§2) In Example 1, the safety and tolerability and cognitive effects of CHF 5074 was analyzed after prolonged treatment in MCI (mild cognitively impaired) patients.
as §1

[7] = test system: TNF-α and soluble CD 40 ligand (sCD40L); conditions: healthy subjects and individuals with MCI; cited from earlier work
[8] = test system: MCI (mild cognitively impaired) patients; assay: Safety and tolerability after prolonged treatment in MCI patients; type: in vivo, human
Description: as §2, §1

[9] = test system: Notch; conditions: cited from earlier work
[10] = test system: cognitively normal elderly subjects; conditions: cited from earlier work
[11] = test system: patients with mild cognitive impairment (MCI); conditions: cited from earlier work
[12] = test system: β-amyloid; conditions: cited from earlier work
[13] = APOE4 non-carriers, Study Week 64

β-amyloid, sequence (P05067 672-711 limits assumed): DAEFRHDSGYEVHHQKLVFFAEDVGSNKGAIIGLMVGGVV

Question: For O=C(O)C1(c2ccc(-c3ccc(Cl)c(Cl)c3)c(F)c2)CC1 [CHF 5074, 1-(3′,4′-dichloro-2-fluorobiphenyl-4-yl)cyclopropanecarboxylic acid], which oral absorption ([1]; po) is on record?
Answer: good oral absorption

Question: What about the brain penetration [1] of the same compound?
Answer: satisfactory brain penetration

Question: What about the half-life [1] of the same compound?
Answer: long half-life

Question: What about the brain plaque deposition [2] of the same compound?
Answer: prevent brain plaque deposition; also recorded: inhibit brain plaque deposition

Question: And the memory deficits [2]?
Answer: attenuate memory deficits; also recorded: attenuate or reverse associated memory deficits

Question: What about the “M1 inflammatory activity of microglia” value [3] of the same compound?
Answer: blunting or inhibiting M1 inflammatory activity

Question: And the “M2 phagocytic responses of microglia” value [3]?
Answer: stimulating M2 phagocytic responses

Question: And the “neuroinflammation biomarkers (CSF sCD40L and TNF-α)” value [4]?
Answer: dose-dependently lowered

Question: What about the Aβ42 inhibitory activity [5] of the same compound?
Answer: selective Aβ42 inhibitory activity

Question: And the “verbal memory, week 88 change from baseline, comparison of doses” value ([6]; 200 mg/day and 400 mg/day compared to 600 mg/day (FIG. 1))?
Answer: surprisingly superior

Question: What about the “verbal memory at week 88 (number of words)” value ([6]; 200 mg/day and 400 mg/day doses (FIG. 8)) of the same compound?
Answer: dose-dependent improvement

Question: What about the “improvements as share of Baseline scores” value ([6]; APOE4 carriers, Immediate Word Recall and Trail Making Test-A, Study Week 64) of the same compound?
Answer: 25-38%

Question: And the “Immediate Word Recall, improvement compared to Baseline” value ([6]; APOE4 carriers, Study Week 64, p=0.012 vs non-carriers)?
Answer: +5.4±1.2 words

Question: And the “Trail Making Test-A, improvement compared to Baseline” value ([6]; APOE4 carriers, Study Week 64, p=0.034 vs non-carriers)?
Answer: -12.4 ± 2.8 s

Question: And the “Immediate Word Recall, improvement compared to Baseline” value [6, 13]?
Answer: +1.4±0.9 words

Question: What about the “Trail Making Test-A, improvement compared to Baseline” value [6, 13] of the same compound?
Answer: -5.6 ± 3.3 s

Question: And the “Digit Symbol Substitution Test, improvement compared to Baseline” value ([6]; interim analysis, 32 patients reaching Study Week 64, p<0.001)?
Answer: +4.8±1.1 matches

Question: And the “Immediate Word Recall, improvement compared to Baseline” value ([6]; interim analysis, 32 patients reaching Study Week 64, p=0.001)?
Answer: +2.9±0.8 words

Question: What about the “Trail Making Test-A, improvement compared to Baseline” value ([6]; interim analysis, 32 patients reaching Study Week 64, p=0.002) of the same compound?
Answer: -8.1 ± 2.4 s

Question: And the “Delayed Word Recall, improvement compared to Baseline” value ([6]; interim analysis, 32 patients reaching Study Week 64, p=0.003)?
Answer: +1.3±0.4 words

Question: And the “Trail Making Test-B, improvement compared to Baseline” value ([6]; interim analysis, 32 patients reaching Study Week 64, p=0.004)?
Answer: -14.5 ± 4.6 s

Question: And the “CSF biomarkers of neuroinflammation, TNF-α and sCD40L” value [7]?
Answer: lowers, in a dose-dependent fashion

Question: And the “diarrhea, patients reporting” value ([8]; 200 mg/day)?
Answer: 1.4%

Question: And the “diarrhea, patients reporting” value ([8]; 400 mg/day)?
Answer: 6.3%

Question: What about the “drop-outs for adverse events” value ([8]; 400 mg/day group, at Study Week 40 (pneumonia)) of the same compound?
Answer: one

Question: And the “diarrhea, patients reporting” value ([8]; 600 mg/day)?
Answer: 16.0%

Question: What about the “drop-outs for adverse events” value ([8]; 600 mg/day group, at Study Week 40 (serum creatinine elevation and worsening of cognitive function)) of the same compound?
Answer: two

Question: And the safety profile ([8]; MCI patients)?
Answer: acceptable safety profile

Question: What about the tolerability ([8]; prolonged treatment at doses up to and including 400 mg/day) of the same compound?
Answer: well tolerated

Question: What about the “effects on Notch processing” value [9] of the same compound?
Answer: lack of effects on Notch processing

Question: With COc1ccc2cc([C@H](C)C(=O)O)ccc2c1 [naproxen] as the compound, how does the “protection from the onset of AD compared to placebo” value ([10]; 4-year follow-up assessment) read?
Answer: 67%

Question: What about the incidence of dementia ([10]; after two years of treatment) of the same compound?
Answer: neither drug reduced the incidence of dementia

Question: Which “outcome of secondary prevention study” value [11] does the source give for CS(=O)(=O)c1ccc(C2=C(c3ccccc3)C(=O)OC2)cc1 [rofecoxib] here?
Answer: negative

Question: With “MABT5102A: humanized monoclonal antibody against human Aβ1-40 and Aβ1-42 with an IgG4 backbone which reduces effector function” as the compound, how does the “binding to β-amyloid species” value [12] read?
Answer: binds to soluble, oligomeric and fibrillar β-amyloid deposits
